Source: patent US9556122B2, “Luminescent 1-hydroxy-2-pyridinone chelates of lanthanides” (THE REGENTS OF THE UNIVERSITY OF CALIFORNIA, priority 2006, dated 2017)

Assay: Preliminary extraction study
Conditions: over a wide range of acidity and ionic strength

CCCCCCCCNC(=O)c1cccc(=O)n1O [octyl-1,2-HOPO, 1-Hydroxy-6-N-octylcarboxamide-2(1H)-pyridinone]
specificity as extractant for Pu(IV): high specificity
